Assay results taken from PMC9610434, “Discovery of 2′,6-Bis(4-hydroxybenzyl)-2-acetylcyclohexanone, a Novel FtsZ Inhibitor” (Molecules, 2022).
Like-named read-outs stand apart in the source and are kept apart here.

Columns and labels:
[1] = system: Bacillus subtilis 168; set-up: method as in PMID 28002947; settings: cited from earlier work
[2] = target: T1, S. pneumoniae FtsZ (SpnFtsZ) (Streptococcus pneumoniae, UniProt A0A0H2ZNE0); settings: cited from earlier work
[3] = system: Bacillus subtilis 168; assay: Growth inhibition / MIC by agar dilution, Bacillus subtilis 168; format: cell-based
Experimental: (§1) The Minimum Inhibitory Concentration (MIC) was determined as described previously, following the agar dilution method. From an overnight culture of Bacillus subtilis 168 (Bs 168), 2% inoculation was performed to a fresh tube containing Luria Broth. When the bacteria reached an O.D600 = 0.4, the culture was serially diluted to a dilution factor of 10^4. Then, 20 μL of the diluted culture was spotted on plates containing different concentrations of 3 (0, 1, 3, 5, 7, 9, 10, 11, 12, 13 μM) and incubated, at 37 °C, for […], after which the colonies were counted. Similar procedure was performed for Streptococcus pneumoniae TIGR4. Bacteria were grown in Todd–Hewitt Yeast Broth up to 0.4 OD600 and serially diluted. Upon addition on to BHI agar plates containing different concentrations of 3 (0.5, 1, 1.5, 2, 3, 5, 7, 10 μM), the colonies were incubated for 24 h, at 37 °C, with 5% CO2. […] IC50 was determined by plotting percentage inhibition versus log of concentration of drug, using GraphPad Prism 7 software.

[4] = target: T1, S. pneumoniae FtsZ (SpnFtsZ); assay: Binding to SpnFtsZ by tryptophan fluorescence
Experimental: The binding of 3 to SpnFtsZ was assessed using tryptophan fluorescence. The decrease in the fluorescence intensity of SpnFtsZ in the presence of 3 was measured. Then, 2 μM of SpnFtsZ in 50 mM PIPES pH 7.4, 50 mM KCl, was incubated with different concentrations of 3 (0.2, 0.5, 1, 1.5, 2, 3, 4, 5, 7, 10), at 25 °C, for 10 min. The fluorescence spectra were measured at an emission range of 310 nm to 410 nm, after excitation at 295 nm in JASCO FP-8300 spectrofluorometer. Due to the absorbance of 3 at 340 nm, inner filter correction was performed using the below equation:(1) Fcorrected=Fobserved∗antilog ODex+ODem/2
The binding constant, Kd, was determined using the following equation:(2) ∆F=∆Fmax×L/Kd+L
ΔF is the change in the fluorescence intensity of SpnFtsZ, ΔFmax is the maximal change in the fluorescence of SpnFtsZ when the receptor site is fully occupied, and [L] is the concentration of 3.

[5] = system: SpnFtsZ; assay: FtsZ polymerization by light scattering at 400 nm; format: biochemical, Streptococcus pneumoniae; settings: 10 μM SpnFtsZ, 1 mM GTP, increasing concentration
Experimental: SpnFtsZ (10 μM) in 50 mM PIPES pH 7.4, 50 mM KCl and 5 mM MgCl2 (PKM) buffer was incubated with different concentrations of 3 (0, 1, 2, 3, 5, 6, 7) for 20 min, at 25 °C. After the addition of 1 mM GTP, the polymerization was monitored for 600 s, at 37 °C, using light scattering at 400 nm in a JASCO FP-8300 spectrofluorometer.

[6] = system: Z-ring in Bs 168 cells; assay: Immunostaining for Z-ring and nucleoid, Bs 168; format: cell-based, Bacillus subtilis; settings: Bs 168, 8 μM, 10 min
Experimental: (§2) Immunostaining of Bs 168 cells was performed as described previously. Briefly, from an overnight culture of Bs 168, 2% inoculation was performed to a fresh tube containing Luria Broth. When the bacteria reached an O.D600 = 0.4, the culture was divided into two fractions. To one fraction, 8 μM 3 was added, and to another, an equal volume of DMSO. The cells were incubated at 37 °C under shaking conditions for 10 min. Cells were then fixed for 30 min with 2.8% formaldehyde and 0.04% glutaraldehyde. Cells were permeabilized using 0.1% Triton X-100 and then treated with 1 mg/mL lysozyme and 5 mM EDTA for 45 min. Treatment with 0.5% BSA for 30 min was performed to block non-specific binding sites. Then, 1 h treatment each with primary antibody, anti-FtsZ antibody raised in rabbit (1:50 dilution) and secondary antibody (1:400), Alexa Fluor^TM 594 goat anti-rabbit IgG (H+L) was performed. Nucleoid staining was performed with 1 µg/mL 4′-6-diamidino-2-phenylindole (DAPI) for 20 min. Images were captured using Confocal Laser Scanning Microscope—Carl Zeiss, LSM 780. Similar procedure was followed for Sp TIGR4, which was treated with 2 μM 3 for 1 h before following the above immunostaining procedure.

[7] = system: membrane of Bs 168 cells; assay: Membrane staining of live cells with FM 4-64; format: cell-based, Bacillus subtilis; settings: Bs 168, 8 μM, 10 min
Experimental: Membrane staining of live Bs 168 cells was performed using FM 4–64 stain [28]. Bs 168 cells were grown as described above and treated with 8 μM 3 or equivalent volume of DMSO for 10 min. Cells were pelleted down and resuspended in PBS containing 10 μg/mL FM-4–64 dye. After incubation for another 10 min under shaking conditions in the dark, the cells were washed with PBS to remove excess dye. The cells were then mounted on the slide pre-coated with poly-L-lysine and covered with a coverslip. Images were captured in Confocal Laser Scanning Microscope—Carl Zeiss, LSM 780.

[8] = system: SpnFtsZ; assay: Transmission electron microscopy of SpnFtsZ filaments; format: biochemical, Streptococcus pneumoniae; settings: 10 μM compound
Experimental: SpnFtsZ (10 μM) in PKM buffer was incubated without and with 10 μM 3 for 20 min, at 25 °C. The mixture was then polymerized by the addition of 1 mM GTP for 200 s, at 37 °C. Samples for EM were prepared on a fresh carbon–formvar-coated copper EM grid according to a previously described method. Imaging was performed the next day using JEOL JEM 1220 HRTEM (200 kV). ImageJ software was used to determine the length of the FtsZ filaments.

[9] = target: T2, FtsZ from Bacillus subtilis (BsFtsZ) (Bacillus subtilis, UniProt P17865); assay: Transmission electron microscopy of BsFtsZ filaments; format: biochemical; settings: 20 μM compound, 5 μM BsFtsZ
T2 construct: made in house
T2 sequence (P17865 whole entry): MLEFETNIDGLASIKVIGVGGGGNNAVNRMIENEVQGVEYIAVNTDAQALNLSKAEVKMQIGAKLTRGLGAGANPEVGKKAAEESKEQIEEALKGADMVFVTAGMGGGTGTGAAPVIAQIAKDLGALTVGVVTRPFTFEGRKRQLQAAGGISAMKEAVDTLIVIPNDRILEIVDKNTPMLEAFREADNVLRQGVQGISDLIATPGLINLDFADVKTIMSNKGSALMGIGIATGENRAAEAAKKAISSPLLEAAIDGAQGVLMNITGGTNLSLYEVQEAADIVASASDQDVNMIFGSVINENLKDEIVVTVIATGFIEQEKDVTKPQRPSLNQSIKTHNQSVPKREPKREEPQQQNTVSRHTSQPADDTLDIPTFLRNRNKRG
Experimental: In another experiment, BsFtsZ (5 μM) in PKM buffer was incubated without and with 20 μM 3 for 20 min, at 25 °C. The mixture was then polymerized by the addition of 1 mM GTP for 600 s, at 37 °C. Samples for imaging were prepared using the same procedure described above.

[10] = system: alkaline phosphatase; assay: Alkaline phosphatase activity assay; format: biochemical; settings: 5, 10 and 20 μM, PNPP substrate
Experimental: Alkaline phosphatase assay was performed as described previously. Then, 2 U/mL Alkaline Phosphatase enzyme in glycine NaOH buffer, pH 10.4 with 100 mM glycine, 1 mM MgCl2, and 0.1 mM ZnCl2 was incubated with different concentrations (5, 10, and 20 μM) of 3 for 10 min on ice. Immediately after the addition of 250 μM para-4-nitrophenyl phosphate (PNPP), the absorbance at 410 nm was measured for 700 s in a JASCO V-730 spectrophotometer.

[11] = system: Streptococcus pneumoniae TIGR4; assay: Growth inhibition / MIC by agar dilution, Streptococcus pneumoniae TIGR4; format: cell-based; settings: for MIC: Streptococcus pneumoniae
Experimental: as §1

[12] = Cytotoxicity testing in mouse skin L929 cells; format: cell-based; settings: read-out: GI50 (concentration for 50% cell growth inhibition)
[13] = system: SpnFtsZ; assay: Atomic force microscopy of SpnFtsZ filaments; format: biochemical, Streptococcus pneumoniae; settings: 10 μM compound, 4 μM SpnFtsZ; control filaments 9.02 ± 5.2 nm
Experimental: Then, 4 μM SpnFtsZ in PKM buffer was incubated with or without 10 μM 3, for 20 min, at 25 °C. Upon addition of 1 mM GTP, FtsZ was polymerized for 300 s, at 37 °C. AFM samples were prepared according to a previously described method. Then, 20 μL of each sample was added onto the mica sheet and allowed to absorb on it for 15 min. The sheet was then washed with MilliQ and allowed to dry overnight. The samples were imaged the next day using MFP-3D BIO, Asylum Research USA.

[14] = system: SpnFtsZ; assay: FtsZ sedimentation assay; format: biochemical, Streptococcus pneumoniae; settings: 10 μM compound, 10 μM SpnFtsZ, p = 0.02
Experimental: SpnFtsZ (10 μM) in PKM buffer was incubated with different concentrations of 3 (0.5, 1, 3, 6, 10) for 20 min at 25 °C. The reaction mixture was allowed to polymerize by adding 1 mM GTP and incubated for 600 s, at 37 °C. The mixture was then subjected to ultra-centrifugation at 60,000 RPM for 30 min at 30 °C. The supernatant was collected and quantified using Bradford’s reagent. The amount of FtsZ present in the pellet was assessed by subtracting the supernatant concentration from the total protein [30].

[15] = system: tubulin; assay: Tubulin polymerization assay; format: biochemical, goat; settings: 13 μM tubulin, light scattering at 350 nm
Experimental: Streptococcus pneumoniae FtsZ (SpnFtsZ) and Bacillus subtilis FtsZ (BsFtsZ) were purified as described previously. Tubulin from goat brain was purified as described previously. The concentration of all the proteins was estimated using Bradford’s reagent.
Tubulin polymerization was performed as described previously. Purified tubulin (13 μM) in PEM buffer (50 mM PIPES pH 6.8, 3 mM MgCl2 and 1 mM EGTA) + 10% DMSO was incubated with 3 for 10 min on ice. Then, 1 mM GTP was added to the mixture, and polymerization was monitored by light scattering in SoftMax Spectra Multi Plate reader for 30 min, at 37 °C. The excitation and emission wavelengths were set to 350 nm.

[16] = system: Z-ring in Sp TIGR4; assay: Immunostaining for Z-ring and nucleoid, Sp TIGR4; format: cell-based, Streptococcus pneumoniae; settings: Sp TIGR4, 2 μM, 1 h
Experimental: as §2

[17] = system: S. pneumoniae TIGR4 cells; assay: Scanning electron microscopy of cell morphology; format: cell-based, Streptococcus pneumoniae; settings: Sp TIGR4, 2 μM, 1 h, SEM
Experimental: Sp TIGR4 was grown as described above and treated with 2 μM 3 or equivalent volume of DMSO for 1 h. The cells were then fixed with 2.8% formaldehyde and 0.04% glutaraldehyde and resuspended in PBS as described earlier. A small volume (5 μL) was spotted on an aluminium foil and allowed to air dry completely. Images were captured using Field Emission Gun-Scanning Electron Microscope (FEG-SEM) JSM-7600F.

[18] = system: S. pneumoniae; set-up: method as in PMID 18801997; settings: cited from earlier work

T1 sequence (A0A0H2ZNE0 whole entry): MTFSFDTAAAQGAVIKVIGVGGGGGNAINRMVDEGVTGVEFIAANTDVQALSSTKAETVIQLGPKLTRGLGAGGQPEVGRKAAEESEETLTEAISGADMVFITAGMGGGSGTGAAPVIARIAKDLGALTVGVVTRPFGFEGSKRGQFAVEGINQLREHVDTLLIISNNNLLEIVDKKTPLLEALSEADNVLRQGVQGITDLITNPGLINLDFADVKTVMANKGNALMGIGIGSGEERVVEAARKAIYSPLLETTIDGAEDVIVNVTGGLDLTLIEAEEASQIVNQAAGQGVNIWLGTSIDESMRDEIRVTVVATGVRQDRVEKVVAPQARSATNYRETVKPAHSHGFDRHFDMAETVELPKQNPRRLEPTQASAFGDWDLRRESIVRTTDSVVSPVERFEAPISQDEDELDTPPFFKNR

SMILES: O=C(/C=C/c1ccc(O)cc1)C1CCC/C(=C\c2ccc(O)cc2)C1=O (centres unmarked) [Compound 1]
- IC50 ([1]; Bs168): 1.2 ± 0.5 µM
- MIC ([1]; Bs168 cells): 2.0 to 4.0 µg/mL
- melting point: 225 to 227 °C
- Kd [2]: 4 ± 1.1 µM

SMILES: O=C(CCc1ccc(O)cc1)c1cccc(Cc2ccc(O)cc2)c1O [Compound 2, 1-{2-Hydroxy-3-(4-hydroxybenzyl)phenyl}-3-(4-hydroxyphenyl)propan-1-one]
- inhibition at 15 µM ([3]; Bacillus subtilis, 168, treatment with 15 µM, read-out: inhibition of growth of B. subtilis (Bs168)): 21.5 ± 0.5%

SMILES: O=C(CCc1ccc(O)cc1)[C@@H]1CCC[C@H](Cc2ccc(O)cc2)C1=O [Compound 3, 2-(4-Hydroxybenzyl)-6-{3-(4-hydroxyphenyl)propanoyl}cyclohexan-1-one]
- Kd [4]: 2.2 ± 0.3 µM
- effect on FtsZ polymerization (light scattering) [5]: inhibits FtsZ polymerization
- effect on nucleoid separation ([6]; DAPI): no effect on the nucleoid separation
- dividing cells with a prominent Z-ring ([6]; control 35 ± 17%): 3 ± 3%
- effect on cell membrane [7]: remains intact
- FtsZ aggregation (TEM) ([8]; 10 μM SpnFtsZ): large aggregates were seen throughout the grid
- length of FtsZ filaments (TEM) ([8]; control 2.1 ± 1.2 μm): 0.7 ± 0.6 μm
- MIC ([3]; Bacillus subtilis, 168, 6 h, Bs168, agar dilution, 6 h, 37 °C, read-out: MIC): 11 µM
- MIC ([3]; Bacillus subtilis, 168, Bs168 cells, converted from µM, read-out: MIC (equivalent)): ≤ 3.5 µg/mL
- IC50 ([3]; Bacillus subtilis, 168, Bs168, inhibition of proliferation): 4.97 ± 0.01 µM
- BsFtsZ aggregation (TEM) [9]: large aggregates of BsFtsZ
- inhibition of alkaline phosphatase activity [10]: no detectable inhibitory activity
- IC50 ([11]; Streptococcus pneumoniae TIGR4, inhibition of proliferation): 1 ± 0.01 µM
- MIC ([11]; TIGR4, 24 h, Streptococcus pneumoniae TIGR4, agar dilution, 24 h, read-out: MIC): 2 µM
- MIC ([11]; TIGR4, S. pneumoniae, converted from µM, read-out: MIC (equivalent)): ≤ 0.7 µg/mL
- GI50 [12]: 7 ± 2.35 µM
- average height of FtsZ aggregates (AFM) [13]: 233.2 ± 151.2 nm
- reduction of FtsZ pellet compared to control [14]: 17%
- inhibition of tubulin polymerization [15]: no significant inhibition
- effect on nucleoid separation ([16]; DAPI): no effect on the nucleoid separation
- percentage of cells without a Z-ring ([16]; control 50%): 73%
- effect on cell morphology and membrane [17]: no changes in the morphology

SMILES: NC(=O)c1c(F)ccc(OCc2nc3cc(Cl)cnc3s2)c1F [PC190723 4, PC190723]
- MIC [18]: more than 64 µg/mL
- MIC ([18]; converted from µg/mL): > 180 µM
